Reference: the supplement of paper PMC10307832

Columns and labels:
Test in all cases: relative viability (nuclei count vs DMSO), 5 days (fraction); higher = more cells survive
[1] = compound: CC(O)(CS(=O)(=O)c1ccc(F)cc1)C(=O)Nc1ccc(C#N)c(C(F)(F)F)c1 [Bicalutamide] + CC(=O)c1c(C)c2cnc(Nc3ccc(N4CCNCC4)cn3)nc2n(C2CCCC2)c1=O [Palbociclib] (partner 0.5 µM)
Summary of the method: (§1)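 Relative viability divides the nuclei count in treated wells by that in vehicle wells. Lung cancer cell lines were seeded in 1536-well plates, dosed by pin tool the next day, and fixed and stained after 5 days in one step with final 0.05% Triton X-100, 1% formaldehyde and 1 ug/ml Hoechst. Dosing was a single drug or a fixed anchor-drug dose plus five library-drug doses (not always all listed) in √10 steps, and values are medians of duplicate plates imaged at 4×.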

[2] = compound: C(C(=O)C(=O)O)Br [Bromopyruvate] + CC(C)C[C@H](NC(=O)[C@H](Cc1ccccc1)NC(=O)c1cnccn1)B(O)O [Bortezomib] (partner 0.002 µM)
Summary of the method: as §1

[3] = compound: C(C(=O)C(=O)O)Br [Bromopyruvate] + C[C@]1(O)C[C@@H](c2nc(-c3ccc4ccc(-c5ccccc5)nc4c3)c3c(N)nccn32)C1 [Linsitinib] (partner 1 µM)
Summary of the method: as §1

Bicalutamide + Dasatinib = compound: CC(O)(CS(=O)(=O)c1ccc(F)cc1)C(=O)Nc1ccc(C#N)c(C(F)(F)F)c1 [Bicalutamide] + Cc1nc(Nc2ncc(C(=O)Nc3c(C)cccc3Cl)s2)cc(N2CCN(CCO)CC2)n1 [Dasatinib] (partner 0.075 µM)
Summary of the method: as §1

Cell Line | relative viability ([1]; first compound 0.08 µM) | relative viability ([1]; first compound 0.253 µM) | relative viability ([1]; first compound 0.8 µM) | relative viability ([1]; first compound 2.53 µM) | relative viability ([2]; first compound 1 µM) | relative viability ([2]; first compound 3.162 µM) | relative viability ([2]; first compound 10 µM) | relative viability ([2]; first compound 31.62 µM) | relative viability ([2]; first compound 100 µM) | relative viability ([3]; first compound 1 µM) | relative viability ([3]; first compound 3.162 µM) | relative viability ([3]; first compound 10 µM) | relative viability ([3]; first compound 31.62 µM) | relative viability ([3]; first compound 100 µM) | relative viability (Bicalutamide + Dasatinib; first compound 0.08 µM) | relative viability (Bicalutamide + Dasatinib; first compound 0.253 µM) | relative viability (Bicalutamide + Dasatinib; first compound 0.8 µM) | relative viability (Bicalutamide + Dasatinib; first compound 2.53 µM)
NCI-H1792 | 0.653 | 0.569 | 0.759 | 0.614 | 1.01 | 0.932 | 1.11 | 0.879 | 0.915 | 0.538 | 0.533 | 0.718 | 0.522 | 0.456 | 0.84 | 0.509 | 1.06 | 0.856
NCI-H1915 | 0.534 | 0.463 | 0.595 | 0.473 | 1 | 1.02 | 1.01 | 0.929 | 0.975 | 1.12 | 1.15 | 1.09 | 1.09 | 1.1 | 0.317 | 0.29 | 0.301 | 0.252
NCI-H1975 | 0.627 | 0.532 | 0.688 | 0.492 | 0.423 | 0.431 | 0.475 | 0.405 | 0.5 | 0.877 | 1.12 | 1.16 | 0.999 | 0.853 | 0.396 | 0.376 | 0.462 | 0.334
NCI-H1993 | 0.642 | 0.513 | 0.793 | 0.772 | 1.34 | 0.954 | 1.21 | 1.08 | 1.15 | 0.739 | 0.678 | 0.707 | 0.717 | 0.7 | 0.576 | 0.461 | 0.711 | 0.582
NCI-H2009 | 0.241 | 0.246 | 0.252 | 0.255 | 1.02 | 1.02 | 0.918 | 0.897 | 0.768 | 1.16 | 1.25 | 1.22 | 1.1 | 0.97 | 0.337 | 0.321 | 0.278 | 0.222
NCI-H2023 | 0.406 | 0.373 | 0.408 | 0.286 | 0.95 | 1.09 | 0.969 | 0.914 | 1.06 | 0.664 | 0.72 | 0.682 | 0.752 | 0.605 | 0.599 | 0.48 | 0.758 | 0.488
NCI-H2085 | 0.494 | 0.465 | 0.478 | 0.468 | 1.07 | 1.18 | 1.15 | 1 | 0.792 | 0.984 | 1.04 | 0.864 | 0.876 | 0.639 | 0.227 | 0.261 | 0.267 | 0.228
NCI-H2087 | 0.222 | 0.272 | 0.237 | 0.24 | 0.878 | 0.772 | 0.772 | 0.793 | 0.9 | 0.856 | 1.04 | 0.932 | 0.954 | 0.959 | 0.851 | 0.87 | 1.05 | 0.816
NCI-H2126 | 0.339 | 0.339 | 0.344 | 0.32 | 1.1 | 1.05 | 1.12 | 1.14 | 1.15 | 0.718 | 0.693 | 0.697 | 0.701 | 0.753 | 0.628 | 0.581 | 0.632 | 0.555
